One sequence from article PMC5295395, “Inhibition of PlexA1-mediated brain tumor growth and tumor-associated angiogenesis using a transmembrane domain targeting peptide” (Oncotarget, 2016) can be followed below.

In one test the test system is Rac1. The test is described as follows: ELISA-based Rac1 activation assay in U373MG cells. Type of test: cell-based, human. The procedure: (C) Rac-1 activation assay in resting condition and after Sema3A-induced Rac-1 activation in U373 MG cells. (D) Western blot analysis of phosphorylated Akt, total Akt and tubulin in U373MG cells treated with the vehicle (LDS 72 μM), Sema3A (100 ng/ml) or Sema3A + MTP-PlexA1 (10^−7 M). The lower panel is showing the quantification of the p-Akt/Akt ratio in the different conditions. (E) MTP-PlexA1 decreases VEGFR-2 phosphorylation induced by VEGF (100 ng/ml) in HUVEC cells.
PlexA1 is a Rho-GTPase activating protein. Consistently, it has been shown that in response to Sema3A, the Rho-GTPase Rac1 is activated and sequestered at the plasma membrane. […] Moreover, it has been shown that Sema3A inhibits Akt phosphorylation through binding of Rnd1 to PlexA1. […] From these experiments we concluded that MTP-PlexA1 is able to antagonize major signaling pathways of PlexA1 receptor.

The test system of test [1] is NCH644 glioma stem cell tumors in nude mice. The experiment in a line: NCH644-mCherry xenograft in nude mice, cells pre-incubated with peptide. To be noted: 5 days. Type of test: in vivo, human cells in mouse. Here is the method: (§1) Mounting evidence supports a crucial role of cancer stem cells in the initiation or relapse of tumors. This is particularly the case for gliomas. Thus, we decided to evaluate to what extent MTP-PlexA1 would affect glioma stem cell (GSC) growth. To this end, we used the NCH644 human cell line derived from a patient biopsy. […] We next performed a sphere forming assay in which cells were plated into 96-well plates at a low density (30 cells per well) to monitor production of clones from individual cells growing as non-adherent gliomaspheres. A minimum of 30 cells per well was required to allow sufficient sphere production (composed of at least 8 cells) in a time frame compatible with drug testing. Visual control of sphere formation on a daily basis confirmed that cellular edifices were arising from single cells and not due to cell clumping. […] To address whether this inhibitory effect is sufficient to impede tumor development in vivo we performed a xenograft experiment. NCH644 GCS were grafted in the flank of nude mice in a way to obtain two bilateral tumors derived from either control cells without treatment or from cells that had been pre-incubated with MTP-PlexA1. This was done using a fluorescent version of the NCH644 cell line (mCherry-NCH644) allowing live monitoring of tumor appearance (Figure 7E). […]
Experiments were performed according to the Guide for Care and Use of Laboratory Animals (E67-6-482-21) and the European Directive with approval of the regional ethical committee (Reference AL/55/62/02/13). […] For the experiment conducted with cancer stem cell line NCH644mCherry, we performed bilateral grafting of 10^6 cells on each flank of 20 nude mice without treatment or pre-incubated for 1 hour with MTP-PlexA1 at 10–7 M. After 5 days, the fluorescence emission of developing tumors was recorded using the NightOwl system (Berthold) using appropriate excitation and emission filters (580 nm/620 nm respectively).

Test [2] concerns U373MG cells. The test is described as follows: U373MG cell proliferation. Type of test: cell-based, human.
For test [3], the system named is chick chorio-allantoic membrane blood vessels. The test is described as follows: chick embryonic chorio-allantoic membrane assay. Type of test: in vivo. To be noted: chick CAM, local deposition, 10^−7 M, 24 h incubation. Here is the method: The CAM assay was performed using Leghorn eggs. After 4 days incubation at 37°C, the shells were opened and the embryos were transferred to a Petri dish. The CAMs were grown for additional 4 days before deposition of silicone reservoirs in a region containing one large vessel. Reservoirs were filled with 20 μl VEGF165 solution (20 μg/ml) or a combination of VEGF165 (20 μg/ml) + MTP-PlexA1 (10–7 M). After 24 h incubation, micro- photographs were taken for quantification of vessel growth. Camera lucida drawing was systematically performed to allow better counting of blood vessels and sprouting; the entire analysis being performed in blind conditions.

Test [4] deals with U373MG cells. The test is described as follows: 3D migration assay, U373MG spheroids in plasma clot. Type of test: cell-based, human. Conditions: 3D plasma clot, 24 h, VEGF 100 ng/ml, MTP-PlexA1 10–7 M. Here is the method:
Supplementary Figure S6: The anti-tumor effect of MTP-PlxA1 was verified in U373MG human GBM line. We found […]
Because PlexA1 is involved in cell migration we also performed a 3D migration assay. U373MG cells were grown as cell aggregates (micro tumor-like spheroids) for 24 h in plasma clot with or without VEGF. […]
migration that formed cell chains invading the 3D substrate as previously described (12). Strikingly, VEGF-induced cell migration was abolished when MTP-PlexA1 at 10–7 M was added to the cultures. […]
of PlexA1, this part of the study exemplified the therapeutic potential of MTP-PlexA1 because this peptide was able to block two major mechanisms of tumor progression.
(Stable Disease) and 62.5% PR (Partial Response).
(1 picture or pasted object on this page, not shown here)

The subject of a further test is NCH644 cells. The experiment in a line: sphere forming assay, NCH644 glioma stem cells. Type of test: cell-based, human. To be noted: NCH644, 10^−9 M. Here is the method: as §1, with “experiment.” for “experiment. NCH644 GCS were grafted in the flank of nude mice in a way to obtain two bilateral tumors derived from either control cells without treatment or from cells that had been pre-incubated with MTP-PlexA1. This was done using a fluorescent version of the NCH644 cell line (mCherry-NCH644) allowing live monitoring of tumor appearance (Figure 7E).”
Cells were stained with an orange fluorescent dye (CMRA orange, Molecular Probe) to facilitate monitoring of individual cell and sphere counting. […] The sphere forming rate was calculated by dividing the number of sphere at day 4 per the real number of cells at day one in a given well.

Take “TLPAIVGIGGGGGLLLLVIVAVLIAYKRK [MTP-PlexA1, synthetic transmembrane peptide mimicking the TMD of PlexA1]”: the “Rac1 activity, Sema3A-induced” value in the test with Rac1 (Sema3A-induced) was “significantly inhibited”. Also, in the test with Rac1 (resting condition), the “Rac1 activity in the absence of ligand” value was “not affecting”. Further, the “change of number of detectable tumors” value in test [1] (NCH644 cells pre-incubated 1 h at 10–7 M, p = 0.0032, Mann Whitney) is recorded as −71.4%. Moreover, in test [1] (NCH644 cells pre-incubated 1 h at 10–7 M, untreated control 14 tumors in 20 mice, p = 0.0032), the “detectable tumors after grafting pre-incubated cells” value is 4 out of 20. The “size of tumors that were able to grow” value in test [1] (NCH644 cells pre-incubated, fluorescence, p = 0.4258) was “comparable to the one of the control group”. The “U373MG cell proliferation, dose dependence” value in the test on U373MG cells [2] is given as “dose-dependent reduction”. Further, the “change of U373MG cell proliferation, maximal effect” value in the test with U373MG cells [2] (at 10–7 M, p < 0.0001, Mann Whitney) was “–25%”. Moreover, the “VEGFA-induced vascular growth and complexity” value in test [3] is “significantly inhibited”. In addition, the “VEGF-induced U373MG tumor cell migration” value in the test with U373MG cells [4] was “abolished”. Further, in the test on NCH644 cells (4 days, 30 cells per well, p = 0.0015, Student T test), the “decrease of sphere forming ability” value is listed as 33.3%. For the same sequence, in the test on NCH644 cells (vehicle = 100% +/− 9.7%), the “sphere formation relative to vehicle” value was determined as 66.7% +/− 5.2.
